Measured values as given in patent US20190031618A1, “BENZIMIDAZOLE DERIVATIVES USEFUL AS CB-1 INVERSE AGONISTS” (Janssen Pharmaceutica NV, priority 2015, published 2019).
Several values for one entry are separate records, joined by “and”; a condition that tells them apart may be missing. Equal entries are not always repeated. Where two headings read alike, the source gives them in different places.

What was measured:
[1] = target: Human CB1R (Cannabinoid receptor 1) (Homo sapiens, UniProt P21554); assay: CB-1 in vitro cAMP (HTRF) assay; type: cell-based; details: HEK cells, cAMP HTRF, 250 nM forskolin; mean where tested more than once; read-out: CB1 HEK_cAMP EC50
Human CB1R (Cannabinoid receptor 1), sequence (P21554 whole entry): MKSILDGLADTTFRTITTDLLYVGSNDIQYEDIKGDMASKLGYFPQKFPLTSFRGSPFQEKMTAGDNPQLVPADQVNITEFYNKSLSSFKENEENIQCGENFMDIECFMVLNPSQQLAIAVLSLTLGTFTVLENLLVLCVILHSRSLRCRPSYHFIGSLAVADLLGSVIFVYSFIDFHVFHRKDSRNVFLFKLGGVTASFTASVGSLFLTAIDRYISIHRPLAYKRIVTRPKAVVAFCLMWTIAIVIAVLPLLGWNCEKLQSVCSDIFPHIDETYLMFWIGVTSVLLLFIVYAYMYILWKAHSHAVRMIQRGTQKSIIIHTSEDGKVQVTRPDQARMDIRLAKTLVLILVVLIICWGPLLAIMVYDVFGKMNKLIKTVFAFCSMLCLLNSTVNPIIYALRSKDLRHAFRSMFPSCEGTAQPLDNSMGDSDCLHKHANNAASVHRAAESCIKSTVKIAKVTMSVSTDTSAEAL
Method in brief: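 Intracellular cAMP from HTRF ratio (d2-cAMP vs Eu-cryptate anti-cAMP), converted to nM via per-plate standards, in stable human CB1R HEK-293 cells.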

[2] = Mouse Fast PK/BBB: plasma and brain concentration; type: in vivo, Male C57bl/6j mice; details: mice; for concentration at 1 h / concentration at 4 h: male, C57bl/6j, mouse; for concentration at 4 h / Brain Mean Conc. ± Std. Dev: 4 hr
Description: (§1) Male Sprague Dawley rats are ordered from Charles River (225-250 gm upon arrival). They are fed standard chow diet (Purina 5001) and housed 2 per cage. Male C57bl/6j mice are ordered from Charles River at 22-25 g and housed 3 per cage. They are fed standard chow (Purina 5001). All animals are housed in a temperature-controlled room with 12-hour light/dark cycle. Animals are given food and water ad libitum, except as noted.
(§2) Test compounds are administered by oral gavage (5 ml kg^−1 or 10 ml kg^−1).
Male C57bl/6j mice were dosed with test compounds at 20 or 30 mg/kg. Plasma was collected via retro-orbital bleeding at 1 hr and 4 hrs after dosing. Whole brain without cerebellum was collected at 4 hrs after dosing. Wet brain weight was recorded before freezing. Brains were homogenized in saline and sent for analysis for determination of concentration of test compound.
Representative compounds of formula (I) of the present invention were tested according to the procedure described above, with results as listed in Table BIO-2 below.

[3] = Mouse Fast PK/BBB: plasma and brain concentration; type: in vivo, Male C57bl/6j mice; details: mice; for Brain Mean Conc. ± Std. Dev: 1 hr; for concentration at 1 h: male, C57bl/6j, mouse, brain, read-out: Brain Mean Conc. ± Std. Dev
[4] = system: DIO mice; assay: Five-Day Study in DIO Mice: food intake, body weight, plasma insulin, fed blood glucose; type: in vivo; details: for Plasma Insulin: 30 mg/kg, day 5, two hours after dosing, (Std Err)
Description: Male 14-20-week old diet-induced obese mice are ordered from Taconic. Mice were started on a 60% fat diet (D12492, Research Diets, New Brunswick, N.J.) at 6 weeks of age. Mice are single-housed.
as §1, §2

[5] = in vivo; details: mouse, 30 mg/kg
[6] = plasma, dose 20 mg/kg oral, read-out: Plasma Mean Conc. ± Std. Dev
[7] = brain (whole brain without cerebellum), dose 30 mg/kg oral, read-out: Brain Mean Conc. ± Std. Dev
[8] = plasma, dose 30 mg/kg oral, read-out: Plasma Mean Conc. ± Std. Dev
[9] = brain (whole brain without cerebellum), dose 20 mg/kg oral, read-out: Brain Mean Conc. ± Std. Dev
[10] = 30 mg/kg daily oral, Day 1, (Std Err)
[11] = 30 mg/kg daily oral, Day 2, (Std Err)
[12] = 30 mg/kg daily oral, Day 3, (Std Err)
[13] = 30 mg/kg daily oral, Day 4, (Std Err)
[14] = 30 mg/kg group, Day 0, (Std Err)

| SMILES | EC50 [1] [nM] | concentration at 1 h [2, 6] [µg/mL] | concentration at 4 h [2, 6] [µg/mL] | concentration at 4 h [2, 9] [µg/mL] | concentration at 1 h ([3]; dose 20 mg/kg oral) [µg/mL] | concentration at 1 h [2, 8] [µg/mL] | concentration at 4 h [2, 8] [µg/mL] | also measured |
| --- | --- | --- | --- | --- | --- | --- | --- | --- |
| O=C(O)c1cccc(CN2CCC(n3c(C4CC4)nc4ccc(C(c5ccc(Cl)cc5)c5ccc(Cl)cc5)cc43)CC2)c1 [Example 148] | 9.6 | – | – | – | – | 13.5 ± 0.273 | 7.75 ± 3.1 | concentration at 4 h [2, 7]: 0.417 ± 0.05 µg/mL; concentration at 1 h ([3]; dose 30 mg/kg oral): 0.334 ± 0.108 µg/mL |
| O=S(=O)(N1CCC(Cn2c(C3CC3)nc3ccc(C(c4ccc(Cl)cc4)c4ccc(Cl)cc4)cc32)CC1)C(F)(F)F [Example 316] | 2.8 | 3.98 ± 0.448 | 0.247 ± 0.036 | 0.0302 ± 0.0052 | 0.0229 ± 0.0027 | – | – | – |
| O=C(O)c1cc(F)cc(CN2CCC(n3c(C4CC4)nc4ccc(C(c5ccc(Cl)cc5)c5ccc(Cl)cc5)cc43)CC2)c1 [Example 89] | 7.2 | – | – | – | – | 7.19 ± 0.488 | 4.43 ± 0.227 | concentration at 4 h [2, 7]: 0.129 ± 0.0332 µg/mL; concentration at 1 h ([3]; dose 30 mg/kg oral): 0.0926 ± 0.0204 µg/mL |
| CCc1nc2ccc(C(c3ccc(Cl)cc3)c3ccc(Cl)cc3)cc2n1C1CCN(S(=O)(=O)C(F)(F)F)CC1 [Example 328] | 8.4 | 2.64 ± 0.337 | 1.6 ± 0.109 | 0.0993 ± 0.0133 | 0.0391 ± 0.00195 | – | – | Mean Body Weight [4, 10]: 41.2 (0.7) Grams; Mean Daily Food Intake [4, 10]: 0.5 (0.1) Grams; Mean Body Weight [4, 11]: 39.6 (0.6) Grams; Mean Daily Food Intake [4, 11]: 0.5 (0.1) Grams; Mean Body Weight [4, 12]: 38.6 (0.6) Grams; Mean Daily Food Intake [4, 12]: 0.7 (0.1) Grams; Fed Blood Glucose [4, 13]: 154 (7) mg/dL; Mean Body Weight [4, 13]: 38.2 (0.7) Grams; Mean Daily Food Intake [4, 13]: 1.2 (0.1) Grams; Fed Blood Glucose [4, 14]: 183 (9) mg/dL; Mean Body Weight [4, 14]: 43.6 (0.7) Grams; Plasma Insulin [4]: 1.31 (0.13) ng/mL |
| O=C(O)c1ccc(F)c(CN2CCC(n3c(C4CC4)nc4ccc(C(c5ccc(Cl)cc5)c5ccc(Cl)cc5)cc43)CC2)c1 [Example 92] | 15.9 | – | – | – | – | 11.4 ± 2.02 | 5.19 ± 0.277 | concentration at 4 h [2, 7]: 0.0892 ± 0.0277 µg/mL; concentration at 1 h ([3]; dose 30 mg/kg oral): 0.0724 ± 0.0111 µg/mL |
| O=C(O)c1cccc(CN2CCC(n3c(C4CC4)nc4ccc(C(c5ccc(Cl)cc5)c5ccc(Cl)cc5)cc43)CC2)n1 [Example 125] | 17.7 | – | – | – | – | 4.49 ± 1.01 | 0.39 ± 0.157 | Brain Mean Conc. ± Std. Dev ([2]; dose 30 mg/kg oral): BLOQ ± NA; Brain Mean Conc. ± Std. Dev ([3]; dose 30 mg/kg oral): BLOQ ± NA |
| O=C(O)c1ccc(CN2CCC(n3c(C4CC4)nc4ccc(C(c5ccc(Cl)cc5)c5ccc(Cl)cc5)cc43)CC2)o1 [Example 129] | 19.8 | – | – | – | – | 1.37 ± 0.749 | 0.0846 ± 0.0629 | Brain Mean Conc. ± Std. Dev ([2]; dose 30 mg/kg oral): BLOQ ± NA; Brain Mean Conc. ± Std. Dev ([3]; dose 30 mg/kg oral): BLOQ ± NA |
| CCc1nc2ccc(C(c3ccc(Cl)cc3)c3nccs3)cc2n1C1CCN(S(=O)(=O)C(F)(F)F)CC1 (stereo not shown) [Example 400] | 6 | 1.55 ± 0.0657 | 0.947 ± 0.191 | 0.292 ± 0.061 | 0.362 ± 0.0369 | – | – | – |
| COc1ccc(C(c2ccc(OC)cc2)c2ccc3nc(C4CCC4)n(C4CCN(S(=O)(=O)C(F)(F)F)CC4)c3c2)cc1 [Example 320] | 69.3 | 2.9 ± 0.245 | 1.61 ± 0.207 | 0.167 ± 0.0094 | 0.121 ± 0.0181 | – | – | – |
| O=C(O)c1ccc(CN2CCC(n3c(C4CC4)nc4ccc(C(c5ccc(Cl)cc5)c5ccc(Cl)cc5)cc43)CC2)nc1 [Example 124] | 34.9 | – | – | – | – | 2.02 ± 0.555 | 0.297 ± 0.107 | Brain Mean Conc. ± Std. Dev ([2]; dose 30 mg/kg oral): BLOQ ± NA; Brain Mean Conc. ± Std. Dev ([3]; dose 30 mg/kg oral): BLOQ ± NA |

Now from value to compound, other results behind:

| EC50 [1] [nM] | concentration at 1 h [2, 6] [µg/mL] | concentration at 4 h [2, 6] [µg/mL] | concentration at 4 h [2, 9] [µg/mL] | concentration at 1 h ([3]; dose 20 mg/kg oral) [µg/mL] | SMILES | concentration at 1 h [2, 8] [µg/mL] | concentration at 4 h [2, 8] [µg/mL] | also measured |
| --- | --- | --- | --- | --- | --- | --- | --- | --- |
| 3.7 | 1.42 ± 0.489 | 0.436 ± 0.083 | – | – | O=S(=O)(c1cccc(O)c1)N1CCC(n2c(C3CC3)nc3ccc(C(c4ccc(Cl)cc4)c4ccc(Cl)cc4)cc32)CC1 [Example 259] | – | – | Brain Mean Conc. ± Std. Dev ([2]; dose 20 mg/kg oral): BLOQ ± NA; Brain Mean Conc. ± Std. Dev ([3]; dose 20 mg/kg oral): BLOQ ± NA |
| 8.5 | 0.16 ± 0.0697 | 0.0338 ± 0.0112 | – | – | O=C(O)c1csc(S(=O)(=O)N2CCC(n3c(C4CC4)nc4ccc(C(c5ccc(Cl)cc5)c5ccc(Cl)cc5)cc43)CC2)c1 [Example 221] | – | – | Brain Mean Conc. ± Std. Dev ([2]; dose 20 mg/kg oral): BLOQ ± NA; Brain Mean Conc. ± Std. Dev ([3]; dose 20 mg/kg oral): BLOQ ± NA |
| 17.6 | – | – | – | – | O=C(O)c1ccc(S(=O)(=O)N2CCC(n3c(C4CC4)nc4ccc(C(c5ccc(Cl)cc5)c5ccc(Cl)cc5)cc43)CC2)o1 [Example 232] | 0.0819 ± 0.0227 | 0.00711 ± 0.00655 | Brain Mean Conc. ± Std. Dev ([2]; dose 30 mg/kg oral): BLOQ ± NA; Brain Mean Conc. ± Std. Dev ([3]; dose 30 mg/kg oral): BLOQ ± NA |
| 5.6 | 3.94 ± 0.48 | 2.27 ± 0.822 | 0.104 ± 0.019 | 0.0533 ± 0.014 | O=S(=O)(N1CCC(n2c(C3CC3)nc3ccc(C(c4ccc(Cl)cc4)c4ccc(Cl)cc4)cc32)CC1)C(F)(F)F [Example 335] | – | – | Mean Body Weight [4, 10]: 42.8 (0.8) Grams; Mean Daily Food Intake [4, 10]: 0.4 (0.1) Grams; Mean Body Weight [4, 11]: 41.4 (0.7) Grams; Mean Daily Food Intake [4, 11]: 0.5 (0.1) Grams; Mean Body Weight [4, 12]: 40.3 (0.6) Grams; Mean Daily Food Intake [4, 12]: 0.5 (0.1) Grams; Fed Blood Glucose [4, 13]: 160 (6) mg/dL; Mean Body Weight [4, 13]: 39.4 (0.6) Grams; Mean Daily Food Intake [4, 13]: 1.1 (0.1) Grams; Fed Blood Glucose [4, 14]: 187 (9) mg/dL; Mean Body Weight [4, 14]: 45.4 (0.7) Grams; Plasma Insulin [4]: 2.72 (0.61) ng/mL; concentration at 2 h [5]: 7660 ng/mL and 208 ng/g |
| 5.3 | 2.87 ± 0.441 | 0.785 ± 0.191 | 0.0484 ± 0.0004 | 0.0338 ± 0.005 | CCc1nc2ccc(C(c3ccc(Cl)cc3)c3ccc(Cl)cc3)cc2n1CC1CCN(S(=O)(=O)C(F)(F)F)CC1 [Example 315] | – | – | – |
| 6.9 | 5.88 ± 1.29 | 2.13 ± 0.245 | 0.0694 ± 0.0044 | 0.0578 ± 0.0148 | O=S(=O)(N1CCC(n2c(C3CCC3)nc3ccc(C(c4ccc(Cl)cc4)c4ccc(Cl)cc4)cc32)CC1)C(F)(F)F [Example 318] | – | – | – |
| 9.3 | 0.227 ± 0.0672 | 0.0277 ± 0.0131 | – | – | O=C(O)c1ccc(S(=O)(=O)N2CCC(n3c(C4CC4)nc4ccc(C(c5ccc(Cl)cc5)c5ccc(Cl)cc5)cc43)CC2)cc1 [Example 276] | – | – | Brain Mean Conc. ± Std. Dev ([2]; dose 20 mg/kg oral): BLOQ ± NA; Brain Mean Conc. ± Std. Dev ([3]; dose 20 mg/kg oral): BLOQ ± NA |
| 18 | 0.789 | 0.0621 ± 0.02 | – | – | O=C(O)c1cccc(S(=O)(=O)N2CCC(n3c(C4CC4)nc4ccc(C(c5ccc(Cl)cc5)c5ccc(Cl)cc5)cc43)CC2)c1 [Example 242] | – | – | Brain Mean Conc. ± Std. Dev ([2]; dose 20 mg/kg oral): BLOQ ± NA; Brain Mean Conc. ± Std. Dev ([3]; dose 20 mg/kg oral): BLOQ ± NA |
